According to US20220040304A1, “A COMPOSITION FOR CANCER CELL DEATH AND ITS USE” (Industry-University Cooperation Foundation Hanyang …, priority 2018, published 2022):

Key:
MCF-7 cells [1] = test: MTT colorimetric change and cell viability after light irradiation; assay type: cell-based, human; settings: MCF-7, protein 10 μM 24 hours, light 10 mW/cm^2, no Co-h
Procedure: MCF-7 cells were seeded at 5×10^5 cells/mL in a 96-well plate (SPL Cell Culture Plate, 96 well (SPL, Cat #30096)), and cultured at 37° C. for 24 hours (overnight). After the overnight culture, the cells were washed with FBS & Phenol red-free media (RPMI, Well Gene., Korea, Cat #LM011-02), and 100 μL of an FBS-free medium containing the purified protein (final concentration: 10 μM) was added, followed by reaction at 37° C. for 24 hours. After the reaction for 24 hours, the cells were washed with FBS & Phenol red-free media (RPMI), and then 100 μL of FBS & Phenol red-free media (RPMI) was added again. After light irradiation at 10 mW/cm^2 over time, the cells were washed with FBS & Phenol red-free media (RPMI), and 100 μL of FBS & Phenol red-free media (RPMI) was added again. 10 μL of 3-(4,5-dimethylthiazol-2-yl)-2,5-diphenyltetrazolium bromide (MTT; Cell Biolabs Inc., USA; final concentration: 1×) was added, followed by reaction at 37° C. for 4 hours. 100 μL of a supernatant was removed, and 100 μL of DMSO (Sigma-Aldrich., USA) was added, followed by reaction for 10 minutes. The colorimetric change of MTT according to a protein type treated to the cells and light irradiation time was confirmed, and then cell viability was confirmed by measuring the absorbance intensity at 570 nm using a plate reader.

MCF-7 cells [2] = test: Cell death by SYTOX Green or EthD-1 and DAPI fluorescence (light irradiation or Co-h); assay type: cell-based, human; settings: MCF-7, protein 10 μM 24 hours; light 10 mW/cm^2 or Co-h 150 μM over time
Procedure: MCF-7 cells were seeded at 5×10^5 cells/mL in a 96-well plate (SPL Cell Culture Plate, 96 well (SPL, Cat #30096)), and cultured at 37° C. for 24 hours (overnight). After the culture for 24 hours, the cells were washed with FBS & Phenol red-free media (RPMI), and 100 μL of an FBS-free medium containing the purified protein (final concentration: 10 μM) was added, followed by reaction at 37° C. for 24 hours.
After the reaction for 24 hours, the cells were washed with FBS & Phenol red-free media (RPMI), and then 100 μL of FBS & Phenol red-free media (RPMI) was then added.
After the reaction, 8.1 μL of FMN (final concentration: 150 μM) was added. […]
SYTOX Green or EthD-1 and DAPI fluorescence images were observed using a confocal microscope according to a protein type treated to cells and i) light irradiation time or ii) reaction time with a Co-h substrate, and cell death was confirmed by measuring relative fluorescence intensity at an excitation wavelength of 504 nm and an emission wavelength of 523 nm of SYTOX Green, and an excitation wavelength of 525 nm and an emission wavelength of 590 nm of EthD-1 using a plate reader.
Whether or not Cell death was observed by fluorescence microscopy using SYTOX Green (dead cell-specific dye, green) or EthD-1 (dead cell-specific dye, red) and DAPI (live cell-specific dye, blue).

Row | Substance | cell viability / colorimetric change of MTT with light irradiation time (MCF-7 cells [1]) | cell death by staining (SYTOX Green or EthD-1 dead cells, DAPI live cells) (MCF-7 cells [2])
1 | RLuc8-MS: fusion protein of RLuc8 and MiniSOG without lead peptide, 53 kDa | alive | stained with DAPI
2 | MS: first protein MiniSOG, ROS-generating protein (singlet oxygen), expressed from pRSET-MiniSOG, 13 kDa [reference compound] | alive | stained with DAPI
